According to patent publication US11135252B2, “Probiotic therapies for developmental disorders and other neurological disorders” (Baylor College of Medicine, priority 2016, dated 2021):
Entries after “also recorded” stand apart in the source; their conditions may differ.

System: VTA DA neurons
Assay: Social interaction-induced LTP (AMPAR/NMDAR ratio) in VTA DA neurons of MHFD offspring
Assay type: in vivo, mice
Conditions: for stranger interaction-evoked LTP in the VTA (AMPAR/NMDAR ratio): bacteria in drinking water, 24 hours after 10 min reciprocal interaction
Description: Brain regions responding to naturally rewarding stimuli, including the ventral tegmental area (VTA) and the nucleus accumbens (NAc), are crucially involved in social behaviors (Dolen et al., 2013; Gunaydin et al., 2014; Huang and Hessler, 2008). In addition, oxytocin-expressing neurons in the PVN project to the VTA (Melis et al., 2007). Oxytocin activates VTA neurons in both mice and humans, influencing the processing of socially relevant cues (Gregory et al., 2015; Groppe et al., 2013; Tang et al., 2014) and oxytocin receptor blockade in the VTA prevents social attachment in rodents (Pedersen et al., 1994). Given that social stimulation can be particularly rewarding and triggers synaptic potentiation in VTA DA neurons of birds (Huang and Hessler, 2008), it was considered whether direct social interaction evokes long-term potentiation (LTP) of synaptic inputs to VTA DA neurons (FIGS. 20A-20C). To this end, AMPAR/NMDAR ratios were recorded of glutamatergic excitatory postsynaptic currents (EPSCs) in MRD and MHFD offspring 24 hours following a 10 min reciprocal interaction with either a stranger or a familiar mouse (FIG. 5A). In control MRD mice, social interaction with a stranger, but not a familiar mouse, triggered LTP in VTA DA neurons, as determined by an increase in AMPAR/NMDAR ratios (FIGS. 5B and 5D).
Recordings were performed as previously described (Ungless et al., 2001; Zhu et al., 2011) and the investigators were kept blind to treatment conditions. Briefly, mice were anesthetized with a mixture of ketamine (100 mg/kg), xylazine (10 mg/kg) and acepromazine (3 mg/kg). Horizontal slices (225-300 μm thick) containing the VTA were cut from the brains of C57BL/6J mice. Mice were transcardially perfused with an ice-cold, oxygenated solution containing (in mM) NaCl, 87; NaHCO3, 25; KCl, 2.5; NaH2PO4, 1.25; MgCl2, 7; CaCl2, 0.5; dextrose, 25; sucrose, 75. […] Data were obtained with a MultiClamp 700B amplifier, digitized at 20 kHz with a Digidata 1440A, recorded by Clampex 10 and analyzed with Clampfit 10 software (Molecular Devices). […] After establishing a gigaohm seal (>2 GΩ) and recording stable spontaneous firing in cell-attached, voltage clamp mode (−70 mV holding potential), cell phenotype was determined by measuring the width of the action potential and the presence of an Ih current. AMPAR/NMDAR ratios were calculated as previously described (Ungless et al., 2001). […]

| Compound | stranger interaction-evoked LTP in the VTA (AMPAR/NMDAR ratio) | stranger interaction-evoked LTP in the VTA (AMPAR/NMDAR ratio) (listed as live L. reuteri) | social interaction-induced LTP in the VTA (intranasal oxytocin alone, without social interaction) | social interaction-induced LTP in the VTA (intranasal oxytocin approximately 200 μg/kg combined with stranger social interaction) |
| --- | --- | --- | --- | --- |
| Lactobacillus reuteri MM4-1A (ATCC-PTA-6475) [L. reuteri] | rescued stranger interaction-induced LTP | restored stranger interaction-evoked LTP | – | – |
| CC[C@H](C)[C@@H]1NC(=O)[C@H](Cc2ccc(O)cc2)NC(=O)[C@@H](N)CSSC[C@@H](C(=O)N2CCC[C@H]2C(=O)N[C@@H](CC(C)C)C(=O)NCC(N)=O)NC(=O)[C@H](CC(N)=O)NC(=O)[C@H](CCC(N)=O)NC1=O [oxytocin] | – | – | failed to rescue | restored LTP; also recorded: rescued LTP |
